Laboratory results published in patent publication US4925797A, “Process for the decomposition of acrylamide” (Imperial Chemical Industries plc, priority 1986, dated 1990).

Tested on: Methylophilus methylotrophus amidase (acylamide amido hydrolase E.C. No. 3-5-1-4)
Assay: Methylophilus methylotrophus amidase properties (Km)
Type: biochemical
Conditions: amidase induced in Methylophilus methylotrophus; substrate as named

Which Km does the source give for `C=CC(N)=O` [Acrylamide] here?
The Km was 10 mM.

`CC(N)=O` [Acetamide] was tested. Which Km did it give?
Its Km is 0.2 mM.
